Assay results from patent US20030165458A1, “Diagnosis, prevention, amelioration and/or treatment of disturbed immune function induced by disturbed lipid metabolism” (priority 2000, published 2003).

Legend:
[1] = test system: Complement Lipid Pathway (CliP); test: MBL in-vitro assay: MBL-dependent complement activation in human serum, hemolysis of heterologous chicken erythrocytes; assay type: biochemical; details: results summarized in FIG. 9
Method: Experimental procedure: Chylomicrons were isolated from human serum by ultra centrifugation and purified by column chromatography. The purified chylomicron fractions were added to MBL-positive serum (from healthy human subjects) and MBL-negative serum (from MBL-deficient human subjects) and purified heterologous chicken erythrocytes were added. Complement activation was allowed to occur at 37° C. for 45 min. after which, the extend of hemolysis was evaluated by spectrophotometrical determination of hemoglobin levels in serum supernatants.
Using the MBL in-vitro assay, we identified, as an example, the components from olive oil and soy oil inducing Complement Lipid Pathway (CliP)-activation.

[2] = Standardized oral fat load with and without vitamin A in healthy volunteers; assay type: in vivo, human
Method: Experimental procedure: Fasting venous blood was drawn and Sudan Black staining as described in example 2 was carried out (left panel of FIG. 7). In the right panel of FIG. 7, venous blood of the same healthy volunteer was drawn 4 hours after administration of a standardized oral fat load. In the oral RP-fat loading test, cream is used as fat source; this is a 40% (w/v) fat emulsion with a P/S ratio of 0.06, which contains 0.001% (w/v) cholesterol and 2.8% (w/v) carbohydrates. After an overnight fast of 12 h, the subjects ingest the fresh cream, to which 120.000 U of aqueous RP (Retinyl palmitate =vitamin A) had been added 18 h before the test, in a dose of 50 g per m^2 body surface. After the ingestion of the fat load, subjects were only allowed to drink water or tea during the following 24 h. Peripheral blood samples were obtained in sodium EDTA (2 mg/ml) before (T=0), at hourly intervals up to 10 h and at 12 and 24 h after the meal. Tubes were protected against light by aluminum foil and centrifuged immediately for 15 min at 800×g at 4° C. […]
Experimental procedure: Standardized oral fat loading tests (oral RP fat loading test) were performed in volunteers and patients and plasma C3 levels were determined nephelometrically at regular intervals. Complement component 3 was measured by nephelometry (Dade Behring Nephelometry type II). […]

CCCCCCCCCCCCCCCC(=O)OC/C=C(C)/C=C/C=C(C)/C=C/C1=C(C)CCCC1(C)C [vitamin A, Retinyl palmitate]
CLiP-induction [1]: strong CLiP-induction
postprandial plasma C3 increase ([2]; 20 healthy volunteers, oral fat load with vs without vitamin A, after 2 h (FIG. 11A)): significantly higher
plasma triglyceride increase 2 h after acute oral fat load ([2]; healthy volunteers, fat load with vs without vitamin A (FIG. 11B)): reduction
